Laboratory results published in US8642510B2, “Inhibitors for brassinosteroid signalling” (GMI-Gregor Mendel-Institut fuer Molekulare Pflanzenbiologie …, priority 2008, dated 2014).
“Also recorded” adds a separate entry of the source.

Assays:
[1] = tested on: ASKs (A. thaliana GSK-3/Shaggy-like kinases); experiment: In vitro kinase assay, GST-ASK fusion proteins with MBP and γ-[32P]-ATP; assay type: biochemical, Arabidopsis thaliana; conditions: compounds at 10 μM; result in words
Description: GST-ASK fusion proteins were incubated with MBP as substrate and γ-[32P]-ATP as co-substrate in the absence (−) or presence of different derivatives (the numbers correspond to Table 1). […] The compounds were used at a concentration of 10 μM. The proteins were separated by SDS-PAGE and the incorporated radioactive phosphate detected with a storage phosphor imager screen.
ASKs were expressed as GST-fusion proteins in E. coli BL21. In vitro kinase assays were performed by incubating 50 ng GST-fusion protein, 10 μg myelin basic protein (MBP; Sigma, St Louis, Mo.) as substrate and 0.15 MBq γ-[32P]-ATP as co-substrate at 25° C. for 30 min. The reaction buffer consisted of 20 mM HEPES pH7.4, 15 mM MgCl2, 5 mM EGTA and 1 mM DTT. For initial experiments cold ATP was included at concentrations up to 3 μM. The reaction products were separated by SDS-PAGE and the amount of radioactivity incorporated into MBP quantified using an Amersham storage phosphor imager screen and a Biorad Molecular Imager FX. In vivo kinase activity was detected by phosphorylation band-shift assays using BZR1-CFP as substrate.
Representatives of all groups were expressed as recombinant GST fusion proteins in E. coli.

[2] = Determination of pKa values; conditions: pH5.8, the pH of the medium
Description: Fifty to 100 mg compound were weighed and dissolved in 50 ml 50% (v/v) methanol. A titration curve with 50 mM NaOH as standard solution was recorded with a Greisinger electonics GPHR 1400A pH meter. The equivalence point was determined by the difference quotient method (ΔpH/ΔVNaOH) and the pKa read from the titration curve at 50% neutralisation.

[3] = HPLC-analysis of plant extracts (fate of compound in planta); assay type: in vivo, A. thaliana; conditions: seedlings infiltrated, HPLC of extracts after 15 min
Description: FIG. 5: Estrified compounds are rapidly hydrolysed in planta. A. thaliana seedlings were infiltrated with ½MS medium containing 50 μM compound 10. Control samples were taken before infiltration (A) and analysed by HPLC. A biotransformation product (marked P) of compound 10 could be observed after 15 min (B). A chromatogram of a mixture of compounds 10, 15, and 17 (labelled with C10, C15 and C17, respectively) is shown for comparison (C). The small boxes inserted into the chromatograms show the UV spectra of the peaks in the range of 220 to 360 nm. mAU, milli absorption units recorded at 250 nm.
Two-week-old A. thaliana Co10 seedlings were vacuum infiltrated with ½MS or ½MS containing […] compound 10 as described previously (Rozhon et al., 2005). After 15 min and after 48 h samples were taken, rinsed with water and ground in liquid nitrogen to a fine powder. 100 mg powder were weighed into a reaction tube and 1 ml extraction buffer (20 mM TRIS/HCl pH6.8 dissolved in 20% acetonitrile) was added. […] The extracts were analysed by HPLC with the same settings as mentioned above.
To investigate these conflicting results, the fate of compound 10 in vivo was investigated. Seedlings were infiltrated with compound 10 and plant extracts subsequently analysed by HPLC. […]

ASKζ = biological target: T1, ASKζ (Arabidopsis thaliana, UniProt Q39010); experiment: In vivo kinase assay, BZR1-CFP phosphorylation band-shift in protoplasts; assay type: cell-based, A. thaliana; conditions: protoplasts co-transformed with BZR1-CFP and Myc-tagged ASK; increasing concentrations
T1 construct: expressed in transfected cells; host or cells: A. thaliana protoplasts
T1 sequence (Q39010 1-412): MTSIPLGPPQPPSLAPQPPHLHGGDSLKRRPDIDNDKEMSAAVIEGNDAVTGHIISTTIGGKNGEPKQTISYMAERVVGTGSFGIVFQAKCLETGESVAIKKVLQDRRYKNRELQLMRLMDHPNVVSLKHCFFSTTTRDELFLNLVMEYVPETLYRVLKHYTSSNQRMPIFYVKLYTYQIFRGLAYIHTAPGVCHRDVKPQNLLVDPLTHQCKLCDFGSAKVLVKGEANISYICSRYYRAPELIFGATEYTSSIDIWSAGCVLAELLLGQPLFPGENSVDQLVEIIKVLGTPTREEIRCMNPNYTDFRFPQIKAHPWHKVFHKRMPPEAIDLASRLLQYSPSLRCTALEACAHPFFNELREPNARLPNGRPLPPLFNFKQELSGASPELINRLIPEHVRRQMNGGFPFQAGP
Excerpt: A. thaliana protoplasts were co-transformed with expression constructs of BZR1-CFP and Myc-tagged ASKζ and treated with increasing concentrations of compounds 10 and 15. […] and ASKζ-Myc were detected by western blot analysis using polyclonal anti-GFP and monoclonal anti-Myc antibodies, respectively. A Coomassie R250 stain is shown as a loading control. Depending on the ASKζ kinase activity BZR1-CFP can be observed in a phosphorylated or unphosphorylated form (indicated by arrows). The ratio of the two ASKζ-Myc bands, indicating posttranslational modification of this protein, were not affected by inhibitor application.
ASKs were expressed as GST-fusion proteins in E. coli BL21. […] The reaction products were separated by SDS-PAGE and the amount of radioactivity incorporated into MBP quantified using an Amersham storage phosphor imager screen and a Biorad Molecular Imager FX. In vivo kinase activity was detected by phosphorylation band-shift assays using BZR1-CFP as substrate.
Because of this unexpected result, the effect of the inhibitions on the in vivo ASK activity was analysed by a direct method. […] Transformed protoplasts were incubated with different concentrations of compounds 10 and 15 and BZR1-CFP and […] and subsequently analysed by western blotting.

COC(=O)CCC(=O)Nc1ccc(I)cn1 [Compound 10, 4-[(5-iodopyrid-2-yl)amino]-4-oxobutanoic acid methyl ester]
Inhibition of ASKs in vitro (MBP phosphorylation) [1]: dramatically reduced inhibitory effects; also recorded: little potency in vitro; also recorded: little or no activity | Portion undissociated / lipophilic, capable of diffusion through the membrane [2]: 100% | Stability in planta (hydrolysis of methyl ester to free acid) [3]: not stable in vivo but rapidly converted; also recorded: rapidly cleaved off | Inhibition of in vivo ASK activity (BZR1-CFP phosphorylation shift) (ASKζ): potent inhibitors in vivo; also recorded: highly active
